# Measured values from PubChem BioAssay (NCI).
#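 Tested at 5 concentrations; 48 h exposure; 96-well plates; endpoints linearly interpolated, else capped at highest concentration. TGI is the concentration that stops growth completely.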
# Columns and labels:
# Test in all cases: NCI anticancer screen, dose series, 48 h
# 786-0 renal = tested on: 786-0 renal
# A498 renal = tested on: A498 renal
# A549 NSCLC = tested on: A549 NSCLC
# ACHN renal = tested on: ACHN renal
# CAKI-1 renal = tested on: CAKI-1 renal
# CCRF-CEM leukemia = tested on: CCRF-CEM leukemia
# COLO 205 colon = tested on: COLO 205 colon
# DLD-1 colon = tested on: DLD-1 colon
# DMS 114 small cell lung = tested on: DMS 114 small cell lung
# DMS 273 small cell lung = tested on: DMS 273 small cell lung
# EKVX NSCLC = tested on: EKVX NSCLC
# HCC-2998 colon = tested on: HCC-2998 colon
# HCT-116 colon = tested on: HCT-116 colon
# HCT-15 colon = tested on: HCT-15 colon
# HL-60(TB) leukemia = tested on: HL-60(TB) leukemia
# HOP-18 NSCLC = tested on: HOP-18 NSCLC
# HOP-62 NSCLC = tested on: HOP-62 NSCLC
# HOP-92 NSCLC = tested on: HOP-92 NSCLC
# HT29 colon = tested on: HT29 colon
# IGROV1 ovarian = tested on: IGROV1 ovarian
# K-562 leukemia = tested on: K-562 leukemia
# KM12 colon = tested on: KM12 colon
# KM20L2 colon = tested on: KM20L2 colon
# LOX IMVI melanoma = tested on: LOX IMVI melanoma
# LXFL 529 NSCLC = tested on: LXFL 529 NSCLC
# M14 melanoma = tested on: M14 melanoma
# M19-MEL melanoma = tested on: M19-MEL melanoma
# MALME-3M melanoma = tested on: MALME-3M melanoma
# MOLT-4 leukemia = tested on: MOLT-4 leukemia
# NCI-H226 lung = tested on: NCI-H226 lung
# NCI-H23 lung = tested on: NCI-H23 lung
# NCI-H460 lung = tested on: NCI-H460 lung
# NCI-H522 lung = tested on: NCI-H522 lung
# OVCAR-3 ovarian = tested on: OVCAR-3 ovarian
# OVCAR-4 ovarian = tested on: OVCAR-4 ovarian
# OVCAR-5 ovarian = tested on: OVCAR-5 ovarian
# OVCAR-8 ovarian = tested on: OVCAR-8 ovarian
# RPMI-8226 leukemia = tested on: RPMI-8226 leukemia
# RXF 393 renal = tested on: RXF 393 renal
# SF-268 CNS = tested on: SF-268 CNS
# SF-295 CNS = tested on: SF-295 CNS
# SF-539 CNS = tested on: SF-539 CNS
# SK-MEL-2 melanoma = tested on: SK-MEL-2 melanoma
# SK-MEL-28 melanoma = tested on: SK-MEL-28 melanoma
# SK-MEL-5 melanoma = tested on: SK-MEL-5 melanoma
# SK-OV-3 ovarian = tested on: SK-OV-3 ovarian
# SN12C renal = tested on: SN12C renal
# SNB-19 CNS = tested on: SNB-19 CNS
# SNB-75 CNS = tested on: SNB-75 CNS
# SNB-78 CNS = tested on: SNB-78 CNS
# SW-620 colon = tested on: SW-620 colon
# TK-10 renal = tested on: TK-10 renal
# U251 CNS = tested on: U251 CNS
# UACC-257 melanoma = tested on: UACC-257 melanoma
# UACC-62 melanoma = tested on: UACC-62 melanoma
# UO-31 renal = tested on: UO-31 renal
# XF 498 CNS = tested on: XF 498 CNS
# RXF-631 renal = tested on: RXF-631 renal
smiles,measurement,setting,value
CCC1c2cc3n(c(=O)c2COC1O)Cc1c-3nc2ccccc2c1Cl (stereo not given),TGI,786-0 renal,> 100 µM
same,TGI,A498 renal,> 100 µM
same,TGI,A549 NSCLC,> 100 µM
same,TGI,ACHN renal,> 84 µM
same,TGI,CAKI-1 renal,> 100 µM
same,TGI,CCRF-CEM leukemia,> 100 µM
same,TGI,COLO 205 colon,> 100 µM
same,TGI,DLD-1 colon,> 100 µM
same,TGI,DMS 114 small cell lung,> 100 µM
same,TGI,DMS 273 small cell lung,> 100 µM
same,TGI,EKVX NSCLC,> 100 µM
same,TGI,HCC-2998 colon,> 100 µM
same,TGI,HCT-116 colon,> 100 µM
same,TGI,HCT-15 colon,> 100 µM
same,TGI,HL-60(TB) leukemia,> 100 µM
same,TGI,HOP-18 NSCLC,> 100 µM
same,TGI,HOP-62 NSCLC,> 100 µM
same,TGI,HOP-92 NSCLC,> 100 µM
same,TGI,HT29 colon,> 100 µM
same,TGI,IGROV1 ovarian,> 100 µM
same,TGI,K-562 leukemia,> 100 µM
same,TGI,KM12 colon,> 100 µM
same,TGI,KM20L2 colon,> 100 µM
same,TGI,LOX IMVI melanoma,> 100 µM
same,TGI,LXFL 529 NSCLC,> 100 µM
same,TGI,M14 melanoma,> 75 µM
same,TGI,M19-MEL melanoma,> 100 µM
same,TGI,MALME-3M melanoma,> 100 µM
same,TGI,MOLT-4 leukemia,> 73 µM
same,TGI,NCI-H226 lung,> 100 µM
same,TGI,NCI-H23 lung,> 100 µM
same,TGI,NCI-H460 lung,> 100 µM
same,TGI,NCI-H522 lung,> 100 µM
same,TGI,OVCAR-3 ovarian,> 100 µM
same,TGI,OVCAR-4 ovarian,> 100 µM
same,TGI,OVCAR-5 ovarian,> 100 µM
same,TGI,OVCAR-8 ovarian,> 100 µM
same,TGI,RPMI-8226 leukemia,> 100 µM
same,TGI,RXF 393 renal,> 100 µM
same,TGI,SF-268 CNS,> 100 µM
same,TGI,SF-295 CNS,> 100 µM
same,TGI,SF-539 CNS,> 100 µM
same,TGI,SK-MEL-2 melanoma,> 100 µM
same,TGI,SK-MEL-28 melanoma,> 100 µM
same,TGI,SK-MEL-5 melanoma,> 100 µM
same,TGI,SK-OV-3 ovarian,> 100 µM
same,TGI,SN12C renal,> 100 µM
same,TGI,SNB-19 CNS,> 100 µM
same,TGI,SNB-75 CNS,> 100 µM
same,TGI,SNB-78 CNS,> 100 µM
same,TGI,SW-620 colon,> 100 µM
same,TGI,TK-10 renal,> 100 µM
same,TGI,U251 CNS,> 100 µM
same,TGI,UACC-257 melanoma,> 100 µM
same,TGI,UACC-62 melanoma,> 100 µM
same,TGI,UO-31 renal,> 100 µM
same,TGI,XF 498 CNS,> 100 µM
CC(=O)SC(SC(C)=O)SC(C)=O,TGI,786-0 renal,> 100 µM
same,TGI,A498 renal,> 100 µM
same,TGI,A549 NSCLC,> 100 µM
same,TGI,ACHN renal,> 100 µM
same,TGI,CCRF-CEM leukemia,81 µM
same,TGI,COLO 205 colon,82.9 µM
same,TGI,DLD-1 colon,> 100 µM
same,TGI,DMS 114 small cell lung,> 100 µM
same,TGI,DMS 273 small cell lung,> 100 µM
same,TGI,EKVX NSCLC,> 100 µM
same,TGI,HCC-2998 colon,> 100 µM
same,TGI,HCT-116 colon,> 100 µM
same,TGI,HCT-15 colon,> 100 µM
same,TGI,HL-60(TB) leukemia,> 100 µM
same,TGI,HOP-18 NSCLC,> 100 µM
same,TGI,HOP-62 NSCLC,> 100 µM
same,TGI,HT29 colon,> 100 µM
same,TGI,IGROV1 ovarian,> 100 µM
same,TGI,K-562 leukemia,> 100 µM
same,TGI,KM12 colon,> 100 µM
same,TGI,KM20L2 colon,> 100 µM
same,TGI,LOX IMVI melanoma,> 100 µM
same,TGI,LXFL 529 NSCLC,> 100 µM
same,TGI,M14 melanoma,> 100 µM
same,TGI,M19-MEL melanoma,> 100 µM
same,TGI,MALME-3M melanoma,> 100 µM
same,TGI,MOLT-4 leukemia,> 100 µM
same,TGI,NCI-H226 lung,> 100 µM
same,TGI,NCI-H23 lung,> 100 µM
same,TGI,NCI-H460 lung,> 100 µM
same,TGI,NCI-H522 lung,45.2 µM
same,TGI,OVCAR-3 ovarian,> 100 µM
same,TGI,OVCAR-4 ovarian,> 100 µM
same,TGI,OVCAR-5 ovarian,> 100 µM
same,TGI,OVCAR-8 ovarian,> 100 µM
same,TGI,RXF 393 renal,> 100 µM
same,TGI,RXF-631 renal,> 100 µM
same,TGI,SF-268 CNS,> 100 µM
same,TGI,SF-539 CNS,> 100 µM
same,TGI,SK-MEL-2 melanoma,> 100 µM
same,TGI,SK-MEL-28 melanoma,> 100 µM
same,TGI,SK-MEL-5 melanoma,> 100 µM
same,TGI,SK-OV-3 ovarian,> 100 µM
same,TGI,SN12C renal,> 100 µM
same,TGI,SNB-19 CNS,> 100 µM
same,TGI,SNB-75 CNS,> 100 µM
same,TGI,SNB-78 CNS,> 100 µM
same,TGI,SW-620 colon,> 100 µM
same,TGI,TK-10 renal,> 100 µM
same,TGI,U251 CNS,> 100 µM
same,TGI,UACC-257 melanoma,> 100 µM
same,TGI,UACC-62 melanoma,> 100 µM
same,TGI,UO-31 renal,> 100 µM
